Key:
Format in all cases: cell-based
[1] = system: ZR-75-1 (non-TNBC cell line); assay: MTT cell viability assay, ZR-75-1; conditions: Homo sapiens, ZR-75-1, 72 h, read-out: IC50 ± SD, ZR-75-1
Description: (§1) The following cancer and non-cancer cell lines were used in the initial cytotoxicity screening of the TPH104 compounds: triple negative breast cancer (TNBC): MDA-MB468, MDA-MB 231, and BT-20; non-TNBC: MCF-7 and ZR-75-1; ovarian: Ov2008; prostate: DU145; colon: HCT-116, S1, and LOVO; lung: H460; normal kidney: HEK-293; normal breast: HMEC; and normal colon: CRL-1459. All cells were cultured in Dulbecco's modified Eagle medium (DMEM), supplemented with 10% fetal bovine serum (FBS), and 1% penicillin/streptomycin (P/S). Cells were allowed to grow as adherent monolayers in T25 flasks in a humidified incubator with 5% CO2 at 37° C. for a period of 24 h, unless otherwise specified for certain experiments.
(§2) The MTT assay was used to determine the cytotoxicity of all of the compounds. Briefly, in a 96-well flat-bottom cell culture plate, the cells were seeded at a density between 3-5×10^3 cells/well (180 μl in each well) and incubated for 24 h (a hemocytometer was used for cell counting). The next day, the cells were incubated with different concentrations of the nine compounds (0, 0.1, 0.3, 1, 3, 10, 30, and 100 μM) for 72 h. After 72 h, 20 μl of 5 mg/ml of 3-(4,5-dimethylthiazol-2-yl)-2,5-diphenyltetrazolium bromide (MTT) was added to the plate and incubated with the cells for 3 h at 37° C. In this experiment, the living cells will reduce the soluble MTT dye to non-soluble purple formazan crystals. Following incubation, the media containing MTT removed via suction and 100 μL of 100% dimethyl sulfoxide (DMSO) was added to dissolve the formazan crystals. Subsequently, the plate was shaken for 2 minutes and the absorbance was measured at a wavelength of 570 nm using a SpectraMax iD3 Multi-Mode Microplate Reader (Molecular Devices, Sunnyvale, CA). The IC50 values of each compound were calculated and used to determine the selectivity ratio (IC50 in normal cells/IC50 in cancer cells) of each compound as previously described. Based on the results obtained from these experiments, the compound TPH104, which had the lowest IC50 value, was selected for further experiments.

[2] = biological target: T1, P-gp (ABCB1), DU145TXR prostate cancer cells (Homo sapiens, UniProt P08183); assay: Calcein AM assay for P-gp modulation; conditions: concentration dependent
T1 construct: endogenous in cells; host or cells: DU145TXR prostate cancer cells
T1 sequence (P08183 whole entry): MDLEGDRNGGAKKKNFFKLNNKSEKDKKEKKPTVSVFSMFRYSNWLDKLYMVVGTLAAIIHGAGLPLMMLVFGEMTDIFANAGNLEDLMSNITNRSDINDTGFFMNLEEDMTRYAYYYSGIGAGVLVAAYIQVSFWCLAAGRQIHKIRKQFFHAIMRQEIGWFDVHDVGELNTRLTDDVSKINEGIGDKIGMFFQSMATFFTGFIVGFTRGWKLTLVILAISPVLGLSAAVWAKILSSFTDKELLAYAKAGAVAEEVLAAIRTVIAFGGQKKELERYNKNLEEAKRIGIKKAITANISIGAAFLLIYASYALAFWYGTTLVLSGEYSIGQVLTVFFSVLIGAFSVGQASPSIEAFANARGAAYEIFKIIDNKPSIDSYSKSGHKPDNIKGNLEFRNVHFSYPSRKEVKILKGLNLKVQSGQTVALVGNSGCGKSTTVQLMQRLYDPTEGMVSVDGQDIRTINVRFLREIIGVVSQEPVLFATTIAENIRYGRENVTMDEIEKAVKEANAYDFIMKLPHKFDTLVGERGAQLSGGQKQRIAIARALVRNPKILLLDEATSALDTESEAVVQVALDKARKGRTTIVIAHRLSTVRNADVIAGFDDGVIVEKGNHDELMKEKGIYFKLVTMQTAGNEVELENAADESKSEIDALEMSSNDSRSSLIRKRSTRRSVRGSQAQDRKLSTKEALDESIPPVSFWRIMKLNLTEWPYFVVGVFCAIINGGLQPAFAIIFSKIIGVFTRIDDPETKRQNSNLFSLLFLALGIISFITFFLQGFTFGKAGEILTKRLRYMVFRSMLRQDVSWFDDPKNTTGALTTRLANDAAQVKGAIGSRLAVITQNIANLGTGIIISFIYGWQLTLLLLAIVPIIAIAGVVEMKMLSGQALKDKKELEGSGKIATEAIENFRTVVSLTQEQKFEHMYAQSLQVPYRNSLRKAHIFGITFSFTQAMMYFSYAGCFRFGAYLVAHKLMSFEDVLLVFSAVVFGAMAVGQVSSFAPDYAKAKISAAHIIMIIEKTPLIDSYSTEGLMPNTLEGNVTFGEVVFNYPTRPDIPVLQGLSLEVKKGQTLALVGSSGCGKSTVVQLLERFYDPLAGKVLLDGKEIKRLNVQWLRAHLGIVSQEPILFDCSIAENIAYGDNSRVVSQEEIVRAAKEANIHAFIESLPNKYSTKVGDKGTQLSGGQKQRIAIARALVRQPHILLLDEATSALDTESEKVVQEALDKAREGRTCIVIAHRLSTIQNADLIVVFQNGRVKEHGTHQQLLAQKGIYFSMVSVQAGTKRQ
Description: Ability of P-gp to efflux Calcein AM is used to identify the molecules which interfere with P-gp transporter activity. About 10000 cells of DU145TXR prostate cancer cells were seeded in each well in 96 well plates and allowed to grow until confluency for 4-5 days. Then media was replaced with phenol red free RPMI media and cells were treated with indicated concentrations of TPH104s and 1 μg/mL of Calcein AM. Fluorescence measured after 60 minutes with excitation at 485/20 nm and at emission 535/20 nm using the BioTek Cytation 5 imaging multi-mode reader (Bio-Tek, Winooski, VT). DMSO (0.5% v/v) was used as the vehicle, and 15 μM of Pgp inhibitor SMU 45 was used as a positive control. (n=6 in each trial).

[3] = system: MCF-7 (non-TNBC cell line); assay: MTT cell viability assay, MCF-7; conditions: Homo sapiens, MCF7, 72 h, read-out: IC50 ± SD, MCF-7
Description: as §1, §2

[4] = system: MDA-MB231 (TNBC cell line); assay: MTT cell viability assay, MDA-MB231; conditions: Homo sapiens, MDA-MB-231, 72 h, read-out: IC50 ± SD, MDA-MB231
Description: as §1, §2

[5] = system: normal human mammary epithelial cells (HMEC); assay: MTT cell viability assay, HMEC; conditions: Homo sapiens, HMEC; MTT, 72 h; Normal; read-out: IC50 ± SD, HMEC
Description: as §1, §2

[6] = system: MDA-MB468 (TNBC cell line); assay: MTT cell viability assay, MDA-MB468; conditions: Homo sapiens, MDA-MB-468, 72 h, read-out: IC50 ± SD, MDA-MB468
Description: as §1, §2

TNBC cell lines = assay: Cytotoxicity screening (MTT), TNBC cell lines overall; conditions: classification of Table 1 cytotoxicity data
From the text: To this end, several commercial databases were searched, and 17 similar molecules from the VitasM database were retrieved with considerable structural diversity in terms of the substitution on the aryl ring A attached to the thienopyrimidine scaffold and aryl ring B attached to hydrazino moiety. Further, the biological evaluation of the 17 molecules sheds light on the structural features deemed important for the selective cytotoxicity shown by this class of molecules. With this understanding, the 17 molecules were subjected to a screening protocol comprising of two TNBC, two non-TNBC, and one normal cell lines.
as §1, §2

[7] = biological target: T2, BCRP (ABCG2), MCF-7 M100 breast cancer cells (Homo sapiens, UniProt Q9UNQ0); assay: Hoechst 33342 assay for BCRP modulation; conditions: concentration dependent
T2 construct: endogenous in cells; host or cells: MCF-7 M100 breast cancer cells
T2 sequence (Q9UNQ0 whole entry): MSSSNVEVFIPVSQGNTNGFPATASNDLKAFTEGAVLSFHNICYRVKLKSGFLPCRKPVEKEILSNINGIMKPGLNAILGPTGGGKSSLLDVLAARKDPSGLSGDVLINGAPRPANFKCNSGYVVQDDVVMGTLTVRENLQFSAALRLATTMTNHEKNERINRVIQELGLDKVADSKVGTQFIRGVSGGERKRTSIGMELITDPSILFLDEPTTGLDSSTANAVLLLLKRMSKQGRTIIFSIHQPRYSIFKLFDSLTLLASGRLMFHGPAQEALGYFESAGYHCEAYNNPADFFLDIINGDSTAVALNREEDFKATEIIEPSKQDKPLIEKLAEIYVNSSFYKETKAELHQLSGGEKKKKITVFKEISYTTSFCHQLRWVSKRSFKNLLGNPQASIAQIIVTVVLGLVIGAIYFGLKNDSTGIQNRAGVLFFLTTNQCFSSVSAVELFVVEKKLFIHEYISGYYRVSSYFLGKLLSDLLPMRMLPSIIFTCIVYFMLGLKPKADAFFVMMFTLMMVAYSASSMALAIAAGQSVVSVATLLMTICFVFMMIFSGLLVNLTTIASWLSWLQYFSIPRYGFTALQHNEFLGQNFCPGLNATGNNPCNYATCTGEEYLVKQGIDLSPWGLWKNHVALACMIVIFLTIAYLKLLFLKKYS
Description: Ability of BCRP to efflux nuclear stain Hoechst 33342 was used to identify the molecules which interfere with BCRP transporter activity. About 14000 cells of MCF-7 M100 breast cancer cells were seeded in each well in 96 well plates and allowed to grow until confluency for 4-5 days. Then media was replaced with phenol red free RPMI media and cells were treated with indicated concentrations of TPH104s and 5 μg/mL of Hoechst 33342. Fluorescence measured after 60 minutes with excitation at 361/20 nm and at emission 497/20 nm using the BioTek Cytation 5 imaging multi-mode reader (Bio-Tek, Winooski, VT). DMSO (0.5% v/v) was used as the vehicle, and 0.5 μM of BCRP inhibitor, Ko143 was used as a positive control and 15 μM of P-gp modulator, verapamil was used as negative control.

## Cc1ccc(-c2csc3ncnc(N/N=C/c4ccc(Br)cc4O)c23)cc1 [TPH104m]
[1]
  IC50: > 100000 nM
[2]
  efflux function of ABCB1: blocking the efflux function
[3]
  IC50: 2730 ± 1020 nM
[4]
  IC50: 440 ± 210 nM
[5]
  IC50: > 100000 nM
[6]
  IC50: 290 ± 10 nM
TNBC cell lines
  potency compared to TPH104: comparable potency to that of TPH104
[7]
  efflux function of ABCG2: blocking the efflux function
